Results as given in patent US7160684B2, “Methods of selecting compounds for modulation of bladder function” (Wyeth, priority 2000, dated 2007).

Legend:
[1] = tested on: isolated rat bladder smooth muscle cell; test: Voltage clamp recording of outward current, rat cells; type: cell-based; conditions: test potentials between −50 and 80 mV; n=5
Description: Rat detrusor cells are isolated in a manner previously described for guinea-pig detrusor (Sheldon J H, Norton N W and Argentieri T M (1997) Inhibition of guinea pig detrusor contraction by NS-1619 is associated with activation of BKCa and inhibition of calcium currents. J Pharmacol Exp Thera 283(3): 1193–1200). Male Sprague-Dawley rats (Charles River, Wilmington, Mass.; 200–400 grams) are euthanized by CO2 inhalation and exsanguination. Their urinary bladders are rapidly removed and placed in 37° C. physiological solution with the following composition (mM): Na glutamate (80.0), NaCl (54.7), KCl (5.0), NaHCO3 (25.0), MgCl2.2H2O (2.5), D-glucose (11.8) and CaCl2 (0.2) gassed with O2—CO2, 95%/5% for a final pH of 7.4. The dome of the bladder is isolated from the trigone region and the mucosa is removed. This tissue is then cut into 2–3 mm wide strips and placed into fresh buffer for 1 hour. Tissues are then transferred into 10 ml of an isolation buffer containing the above composition plus collagenase type VIII (1.0 mg/ml) and pronase (0.25 mg/ml). After 10 minutes the isolation buffer is replaced with fresh isolation buffer for an additional 10 min. The tissue is then washed 3 times in fresh collagenase and pronase free solution and stored at room temperature until studied. Cells for study are prepared by triturating 1–2 pieces of detrusor tissue in 2 ml of fresh isolation buffer for 5 minutes with a polished Pasteur pipette, (tip diameter ˜1.5 mm) attached to a modified Harvard Respirator pump (Harvard Apparatus, Southnatic, Mass.) at a rate of 20×/min. with an approximate volume of 5 ml. Cells are then placed on a microscope stage in a temperature regulated tissue bath at 32.5° C. and continually superfused with PSS.
(§1) Single cell recordings are performed with a List-Medical EPC-7 patch clamp amplifier (Adams & List Assoc., Westbury, N.Y.). Pipette electrodes had tip resistances of 2–4 MΩ and are filled with the following composition (mM): KCl (126.0), MgCl2.6H2O (4.5), ATP Mg salt (4.0), GTP tris salt (0.3), creatine PO4 (14.0), D-glucose (9.0), EGTA (9.0), HEPES (9.0). The pH is adjusted to 7.4 with KOH. Signals are acquired (3 kHz high frequency cut-off, 12 bit resolution) using a 586-based personal computer.
Whole cell recordings are made using broken patch access. Currents are evoked using either voltage steps (Vh=−50; Vt=−60 to 40 mV) or voltage ramps (−60 to 40 mV at 3.3 mV/sec.). The exact voltage clamp protocols are well known in the art. After stability is achieved control currents are recorded. Next, test compound is added to the superfusate. Currents are recorded for 5 to 10 minutes or until compound effects reach steady state. This is followed either by washout or addition of antagonists (linopirdine, XE-991) to the superfusate. […]

[2] = tested on: cultured human bladder smooth muscle cells; test: Current clamp recording of resting membrane potential, human cells; type: cell-based; conditions: resting membrane potential −8.0±2.8 mV before retigabine; n=3
Procedure: as §1
Cell resting membrane potential (RMP) is measured in current clamp using the above mentioned instrumentation and pipette solutions. For these experiments nystatin is also added to the pipette solution (100 μg/ml) to allow recording through utilization of the perforated patch technique (Korn, et al, 1991). After stable access is achieved, RMP is recorded for a 5 minute control period followed by 5 minute of drug application (0.3 and 1.0 μM). After this time, various antagonists (linopirdine, XE-991) are added to the perfusate and RMP is recorded for an additional 5 minutes. […]
Rat bladder strips were isolated and prepared as previously described (Wojdan, A., Freeden, C., Woods, M., Oshiro, G., Spinelli, W. et al., J Pharmacol ExpTherap 289:1410–1418 (1999)). […] Message for KCNQ subunits was probed using quantitative rtPCR on an ABI PRISM 7700 Sequence Detection System (TAQMAN). […]

## CCOC(=O)Nc1ccc(NCc2ccc(F)cc2)cc1N [retigabine, N-[2-amino-4-(4-fluorobenzylamino)-phenyl]carbamic acid ethyl ester]
[1]
  effect on outward current: increase in outward current
[2]
  hyperpolarization of cells: 11±1.1 mV
